Test results taken from US10414713B2, “Fatty acid compound, preparation method therefor and use therefor” (SHANGHAI INSTITUTE OF MATERIA MEDICA, CHINESE ACADEMY OF …, priority 2016, dated 2019).

System: primary hepatocytes of C57bl/6j mice
Experiment: Glucose output in primary hepatocytes of C57bl/6j mice
Type: cell-based
Settings: Hepatocyte, 6 hours, mouse primary hepatocytes, corrected by protein concentration, FIG. 3, read-out: gluconeogenesis inhibition (glucose output) relative to the negative control
Method: 2. To Investigate the Effect of Compounds on Glucose Output in Primary Hepatocytes of C57bl/6j Mice.
(1) Test purpose: To test whether the fatty acid compounds can inhibit hepatocyte glucose output on primary hepatocytes of C57bl/6j mice.
(2) Experimental principle: Small molecule compounds act on mouse primary hepatocytes, inhibit gluconeogenesis, and then affect the glucose output of cells into the medium. The effect of compounds on gluconeogenesis is evaluated by detecting the glucose concentration in the medium after the treatment of different compounds.
(3) Detection reagent: The glucose detection kit was purchased from Shanghai Mind Bioengineering Co., Ltd.
1) the primary hepatocytes of C57bl/6j mice were isolated and inoculated into a 24-well plate at a density of 300,000 per mL. After grew adhering to the wall for 6 hours, they were replaced on serumfree highsugar medium for 12 hours. Compounds 1 to 30 prepared by the present invention (in 1‰ DMSO, 50 μM) were separately added to treat for 6 hours (1‰ DMSO as a negative control). The medium was gently mixed, 50 μL of supernatant was taken from every well, and glucose concentration was measured by a glucose oxidase assay kit.
2) The medium was discarded. The cells was washed with PBS, spin dried, added 200 μL of 250 mM sodium hydroxide solution. […] The protein concentration was determined using coomassie blue staining. […]

Q: With `CCC(C)(CCCCCCC=CCCCCCCCC(C)(CC)C(=O)O)C(=O)O` (stereo not shown) [Compound 20] as the compound, how does the inhibition at 50 µM read?
A: > 50%
